Laboratory results from publication PMC9613624 (Journal of medicinal chemistry, 2022).
Entries after “also recorded” stand apart in the source; their conditions may differ.

Columns and labels:
SW620 cells [1] = assay: Colony formation assay in SW620 cells; type: cell-based; details: 2 weeks, crystal violet
AKT [2] = assay: Western blotting of T-AKT in SW620 cells; type: cell-based; details: for effect on AKT protein levels at high concentrations (in words): concentrations up to 10 μM
AKT [3] = assay: Western blotting of T-AKT in Colo205 cells; type: cell-based; details: Colo205 cells (BRAF mutant), 1 μM, 24 h
[4] = Mouse pharmacokinetic study; type: in vivo, male Swiss Albino mice; details: mice, single IP dose 75 mg/kg
P-PRAS40 = assay: Western blotting of P-PRAS40 in SW620 cells; details: 1 μM, 18 h, Figure S4
SW620 cells [5] = assay: Cell death monitoring with DRAQ7 in SW620 cells; type: cell-based; details: 5 μM, DRAQ7, 0-72 h
AKT [6] = assay: Western blotting of T-AKT in Mia PaCa-2 cells; type: cell-based; details: Mia PaCa-2 cells (KRAS mutant), Figure S2A
AKT1 [7] = biological target: T1, AKT1 (Homo sapiens, UniProt P31749); assay: Global TMT MS-based quantitative proteomic study in SW620 cells; type: cell-based; details: 1 μM, 18 h, approximately 6433 proteins detected
AKT1 [8] = biological target: T1, AKT1; assay: Western blotting of AKT isoforms in SW620 cells; type: cell-based; details: Figure S3
AKT [9] = assay: Western blotting of T-AKT in SKMEL 239 cells; type: cell-based; details: SKMEL 239 cells (BRAF mutant), 1 μM, 24 h
AKT [10] = assay: Western blotting of T-AKT in PANC-1 cells; type: cell-based; details: 24 h
AKT2 [11] = biological target: T2, AKT2 (Homo sapiens, UniProt P31751); assay: Western blotting of AKT isoforms in SW620 cells; type: cell-based; details: Figure S3
AKT2 [12] = biological target: T2, AKT2; assay: Global TMT MS-based quantitative proteomic study in SW620 cells; type: cell-based; details: 1 μM, 18 h, 62 compared to 63
AKT [13] = assay: Western blotting of T-AKT in HT-29 cells; type: cell-based; details: HT-29 cells (BRAF mutant), 1 μM, 24 h
AKT1 [14] = biological target: T1, AKT1; assay: AKT activity inhibition assay; type: biochemical; details: 10 μM ATP
AKT3 = AKT3 (Homo sapiens, UniProt Q9Y243); assay: AKT activity inhibition assay; type: biochemical; details: 10 μM ATP
AKT2 [15] = biological target: T2, AKT2; assay: AKT activity inhibition assay; type: biochemical; details: 10 μM ATP
SW620 cells [16] = assay: Cell proliferation assay; type: cell-based; details: 5 days, IncuCyte

T1 sequence (P31749 whole entry, canonical isoform): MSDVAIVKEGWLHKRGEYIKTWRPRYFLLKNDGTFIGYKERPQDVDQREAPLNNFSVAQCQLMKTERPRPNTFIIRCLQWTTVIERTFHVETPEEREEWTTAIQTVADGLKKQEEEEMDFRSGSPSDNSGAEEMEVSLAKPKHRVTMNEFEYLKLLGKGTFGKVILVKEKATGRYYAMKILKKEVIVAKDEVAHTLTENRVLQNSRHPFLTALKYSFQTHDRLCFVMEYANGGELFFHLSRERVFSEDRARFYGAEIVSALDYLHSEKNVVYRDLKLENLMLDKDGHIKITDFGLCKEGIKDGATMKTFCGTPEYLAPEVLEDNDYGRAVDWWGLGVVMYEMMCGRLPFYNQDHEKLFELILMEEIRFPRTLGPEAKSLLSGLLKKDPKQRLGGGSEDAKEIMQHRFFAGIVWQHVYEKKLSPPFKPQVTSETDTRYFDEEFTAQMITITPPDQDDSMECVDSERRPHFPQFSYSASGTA
T2 sequence (P31751 whole entry, canonical isoform): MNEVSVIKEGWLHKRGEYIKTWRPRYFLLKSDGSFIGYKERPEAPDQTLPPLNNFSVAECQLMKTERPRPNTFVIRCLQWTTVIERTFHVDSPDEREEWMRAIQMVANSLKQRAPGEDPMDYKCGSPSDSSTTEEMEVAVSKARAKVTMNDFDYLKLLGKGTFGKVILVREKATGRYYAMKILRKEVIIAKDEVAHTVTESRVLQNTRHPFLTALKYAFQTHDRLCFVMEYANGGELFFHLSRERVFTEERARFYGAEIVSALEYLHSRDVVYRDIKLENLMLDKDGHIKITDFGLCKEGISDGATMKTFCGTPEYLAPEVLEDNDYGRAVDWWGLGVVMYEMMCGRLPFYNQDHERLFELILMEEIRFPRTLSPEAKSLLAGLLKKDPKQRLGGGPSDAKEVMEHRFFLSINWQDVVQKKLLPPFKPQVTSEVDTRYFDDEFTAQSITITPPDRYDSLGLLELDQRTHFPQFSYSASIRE
Chain of AKT3 (Q9Y243 whole entry): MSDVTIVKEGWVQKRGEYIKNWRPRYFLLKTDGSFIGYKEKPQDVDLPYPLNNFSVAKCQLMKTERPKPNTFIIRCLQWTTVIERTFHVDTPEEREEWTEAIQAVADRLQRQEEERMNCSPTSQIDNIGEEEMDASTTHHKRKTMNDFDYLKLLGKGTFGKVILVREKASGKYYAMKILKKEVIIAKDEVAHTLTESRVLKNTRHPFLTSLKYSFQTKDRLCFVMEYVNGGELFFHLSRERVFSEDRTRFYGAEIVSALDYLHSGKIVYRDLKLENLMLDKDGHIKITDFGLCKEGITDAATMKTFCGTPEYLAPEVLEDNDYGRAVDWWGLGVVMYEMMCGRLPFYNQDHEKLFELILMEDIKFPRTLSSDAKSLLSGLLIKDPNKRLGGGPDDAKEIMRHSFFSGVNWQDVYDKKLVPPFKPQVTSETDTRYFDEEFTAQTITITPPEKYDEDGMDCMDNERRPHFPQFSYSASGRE

For `Cc1ncsc1-c1ccc([C@H](C)NC(=O)[C@@H]2C[C@@H](O)CN2C(=O)[C@@H](NC(=O)CCCCCCCCCCNC(=O)CCc2cccc(-c3ccc4nc(-c5cccnc5N)n(-c5ccc(C6(N)CCC6)cc5)c4n3)c2)C(C)(C)C)cc1` [Compound 62, (2S,4R)-1-((S)-2-(11-(3-(3-(3-(4-(1-Aminocyclobutyl)phenyl)-2-(2-aminopyridin-3-yl)-3H-imidazo[4,5-b]pyridin-5-yl)phenyl)propanamido)undecanamido)-3,3-dimethylbutanoyl)-4-hydroxy-N-((S)-1-(4-(4-methylthiazol-5-yl)phenyl)ethyl)pyrrolidine-2-carboxamide], the “inhibition of colony formation (in words)” value (SW620 cells [1]) was “significantly inhibited colony formation”, the “T-AKT degradation (western blot, in words)” value (AKT [2]; SW620 cells (KRAS mutant), Figure S2) was “effectively and completely depleted T-AKT; also recorded: much more effective than MS21” and the “T-AKT degradation (in words)” value (AKT [2]; SW620 cells, 30 nM, 24 h) was “substantial T-AKT depletion”. For the same molecule, the “T-AKT degradation (in words)” value (AKT [2]; SW620 cells, 100 nM, 24 h) was “nearly complete AKT degradation”, the “T-AKT level (western blot verification for proteomics, in words)” value (AKT [2]; SW620 cells, 1 μM, 18 h, Figure S4) was “significantly reduced” and the “T-AKT degradation in time-course study (in words)” value (AKT [2]; SW620 cells, 1 μM, at 4 h) was “Significant AKT degradation”. The “T-AKT degradation in time-course study (in words)” value (AKT [2]; SW620 cells, 1 μM, at 12 h, maintained for at least another 12 h) was “Near complete AKT degradation”, the “T-AKT protein level in time-course study (in words)” value (AKT [2]; SW620 cells, 1 μM, up to 24 h) was “time-dependently reduced T-AKT protein levels” and the “effect on AKT protein levels at high concentrations (in words)” value (AKT [2]; SW620 cells, 24 h) was “no “hooker effect” was observed”. For the same molecule, the DC50 (AKT [2]; read-out: DC50, T-AKT degradation, SW620 cells, 24 h, western blot) was 23 ± 16 nM, the “T-AKT degradation (in words)” value (AKT [3]) was “more effective than MS21” and the “clinical signs during the PK study” value [4] was “No clinical signs were observed”. For the same molecule, the plasma concentrations ([4]; maintained for at least 12 h) was “above 100 nM”, the “P-PRAS40 inhibition (western blot verification for proteomics, in words)” value (P-PRAS40) was “inhibited” and the “induction of cell apoptosis / percent cell death (in words)” value (SW620 cells [5]) was “most effectively”. For the same molecule, the “T-AKT degradation (western blot, in words)” value (AKT [6]) was “modestly induced AKT degradation”, the “AKT1 protein level in TMT proteomics (in words)” value (AKT1 [7]) was “reduced significantly” and the “proteome-wide degradation selectivity (in words)” value (AKT1 [7]) was “generally selective AKT degrader”. The “AKT1 degradation (western blot, in words)” value (AKT1 [8]) was “potently induced”, the “T-AKT degradation (in words)” value (AKT [9]) was “more effective than MS21” and the “T-AKT degradation (in words)” value (AKT [10]; PANC-1 cells (KRAS mutant), 1 μM) was “near-complete AKT degradation”. For the same molecule, the “T-AKT degradation (in words)” value (AKT [10]; PANC-1 cells, 100 nM) was “complete degradation”, the “T-AKT degradation at high concentrations (in words)” value (AKT [10]; PANC-1 cells, concentrations up to 10 μM) was “no “hooker effect” was observed” and the “AKT2 degradation (western blot, in words)” value (AKT2 [11]) was “potently induced”. The “AKT2 protein level in TMT proteomics (in words)” value (AKT2 [12]) was “also reduced” and the “T-AKT degradation (in words)” value (AKT [13]) was “more effective than MS21”.
For `Cc1ncsc1-c1ccc([C@H](C)NC(=O)[C@H]2C[C@H](OCc3ccccc3)CN2C(=O)[C@@H](NC(=O)CCCCCCCCCCNC(=O)CCc2cccc(-c3ccc4nc(-c5cccnc5N)n(-c5ccc(C6(N)CCC6)cc5)c4n3)c2)C(C)(C)C)cc1` [Compound 64, (2R,4S)-1-((S)-2-(11-(3-(3-(3-(4-(1-Aminocyclobutyl)phenyl)-2-(2-aminopyridin-3-yl)-3H-imidazo[4,5-b]pyridin-5-yl)phenyl)propanamido)undecanamido)-3,3-dimethylbutanoyl)-4-(benzyloxy)-N-((S)-1-(4-(4-methylthiazol-5-yl)phenyl)ethyl)pyrrolidine-2-carboxamide], the “effect on AKT protein levels at high concentrations (in words)” value (AKT [2]; SW620 cells, 24 h) was “no effect”, the “decrease of AKT1 inhibition potency compared to 62” value (AKT1 [14]) was 1.5 fold and the “decrease of AKT3 inhibition potency compared to 62” value (AKT3) was 3.6 fold. The “decrease of AKT2 inhibition potency compared to 62” value (AKT2 [15]) was 6 fold and the “cell growth inhibition (in words)” value (SW620 cells [16]) was “inactive”.
